This is an account of results in patent US6787549B2, “Citrate salt of 5,8,14-triazatetracyclo[10.3.1.02,11.04,9]-hexadeca-2(11),3,5,7,9-pentaene and pharmaceutical compositions thereof” (Pfizer Inc., priority 2001, dated 2004).

Where a name gives a salt, the structure may show the parent alone. Some results are limits rather than exact numbers.

What all share (assay type): physicochemical
One data set is described as follows: aqueous solubility.
The nature of data set [1]: native pH in aqueous solution.
Data set [2] is described as follows: hygroscopicity on exposure to 90% relative humidity in a moisture chamber. The source says:
(§1) Although in general the acid addition salts of 5,8,14-triazatetracyclo[10.3.1.0^2,11.0^4,9]-hexadeca-2(11),3,5,7,9-pentaene are all crystalline, the majority of those salts are so hygroscopic as to render them poor candidates for pharmaceutical formulation use. The citrate salt exists as a hydrate under ambient conditions, where as noted above, hydrate refers to a water content of between 1 and 5% water by weight in the crystal. […] The citrate salt hydrate Form A has been prepared under different conditions: […]

The nature of data set [3]: solid state stability (light, elevated temperature, high humidity challenges). The conditions noted are these: in light, elevated temperatures and high humidity challenges.
Description: as §1

Data set [4] is described as follows: water loss of Form A on drying (low humidity, elevated temperature). How it is done:
Under low humidity and elevated temperature, Form A will lose water depending on the macroscopic crystalline form. Unmilled samples of Form A may be dried in a 45° C. vacuum oven for several days without significant water loss (<1% water loss). […] Under conditions of low humidity and heat, Form A will dehydrate completely or nearly so to form a distinct pseudomorph which maintains a crystalline lattice, referred to herein as Form B. Form B contains between 0 and 1% water by weight.
Form B of the citrate salt of 5,8,14-triazatetracyclo[10.3.1.0^2,11.0^4,9]-hexadeca-2(11),3,5,7,9-pentaene can also be prepared by drying the citrate salt hydrate of 5,8,14-triazatetracyclo[10.3.1.0^2,11.0^4,9]-hexadeca-2(11),3,5,7,9-pentaene. A number of means for drying the water from the crystal lattice may be employed. Form B may be prepared by reducing the particle size of Form A, via any technique known to those of skill in the art, including jet milling, mechanical milling, etc., and drying the reduce particle size citrate salt Form A under conditions sufficient to remove the water in the lattice. […] Vacuum drying at temperatures in the range of 20 to 60° C. will yield Form B in the course of 30 minutes to 10 hours.

Data set [5] can be described thus: inertness towards common formulation excipients.

With `c1cnc2cc3c(cc2n1)C1CNCC3C1` [Form A, Citrate Salt Hydrate of 5,8,14-Triazatetracyclo[10.3.1.0^2,11.0^4,9]-Hexadeca-2(11),3,5,7,9-Pentaene (Form A)], in the data set “aqueous solubility”, the “aqueous solubility (in words)” value is “high aqueous solubility”. In “aqueous solubility” (listed as citrate hydrate salt), the aqueous solubility is 110 mg/mL. In addition, the solubility in “aqueous solubility” (water) was above 100 mg/mL. In addition, the “native pH in aqueous solution” value in data set [1] worked out at 3.7. Moreover, the “hygroscopicity (in words)” value in data set [2] is “only slightly hygroscopic”. For the same compound, the hygroscopicity entry in data set [2] (at 90% relative humidity) was “approximately 0.6%”; in data set [2] (exposure to 90% relative humidity in a moisture chamber) it was “approximately 0.6 % wt/wt”. The solid state stability entry in data set [3] is “excellent solid state stability”. In addition, the “water loss and regain (in words)” value in data set [4] (micronized samples, as humidity and temperature are varied) is “readily lose and regain water”. In data set [4] (particle size reduced, at 45° C.), the “time until water loss is seen” value was “less than 1 hour”. Besides, the water loss in data set [4] (unmilled samples, 45° C. vacuum oven for several days) is reported as below 1%. The “inertness towards common excipients used in pharmaceutical formulation” value in data set [5] is on record as “relative inertness towards common excipients”.
